# Molecular target: T1, 6HIS-Tev-LRRK2 (1326-2527) (Homo sapiens, UniProt Q5S007)
# T1 construct: A LRRK2 cDNA encoding residues 1326-2527 was received from Dundee University; made in house; host or cells: Spodoptera frugiperda Sf9 (baculovirus, pFB-HTb)
# T1 sequence (Q5S007 1326-2527): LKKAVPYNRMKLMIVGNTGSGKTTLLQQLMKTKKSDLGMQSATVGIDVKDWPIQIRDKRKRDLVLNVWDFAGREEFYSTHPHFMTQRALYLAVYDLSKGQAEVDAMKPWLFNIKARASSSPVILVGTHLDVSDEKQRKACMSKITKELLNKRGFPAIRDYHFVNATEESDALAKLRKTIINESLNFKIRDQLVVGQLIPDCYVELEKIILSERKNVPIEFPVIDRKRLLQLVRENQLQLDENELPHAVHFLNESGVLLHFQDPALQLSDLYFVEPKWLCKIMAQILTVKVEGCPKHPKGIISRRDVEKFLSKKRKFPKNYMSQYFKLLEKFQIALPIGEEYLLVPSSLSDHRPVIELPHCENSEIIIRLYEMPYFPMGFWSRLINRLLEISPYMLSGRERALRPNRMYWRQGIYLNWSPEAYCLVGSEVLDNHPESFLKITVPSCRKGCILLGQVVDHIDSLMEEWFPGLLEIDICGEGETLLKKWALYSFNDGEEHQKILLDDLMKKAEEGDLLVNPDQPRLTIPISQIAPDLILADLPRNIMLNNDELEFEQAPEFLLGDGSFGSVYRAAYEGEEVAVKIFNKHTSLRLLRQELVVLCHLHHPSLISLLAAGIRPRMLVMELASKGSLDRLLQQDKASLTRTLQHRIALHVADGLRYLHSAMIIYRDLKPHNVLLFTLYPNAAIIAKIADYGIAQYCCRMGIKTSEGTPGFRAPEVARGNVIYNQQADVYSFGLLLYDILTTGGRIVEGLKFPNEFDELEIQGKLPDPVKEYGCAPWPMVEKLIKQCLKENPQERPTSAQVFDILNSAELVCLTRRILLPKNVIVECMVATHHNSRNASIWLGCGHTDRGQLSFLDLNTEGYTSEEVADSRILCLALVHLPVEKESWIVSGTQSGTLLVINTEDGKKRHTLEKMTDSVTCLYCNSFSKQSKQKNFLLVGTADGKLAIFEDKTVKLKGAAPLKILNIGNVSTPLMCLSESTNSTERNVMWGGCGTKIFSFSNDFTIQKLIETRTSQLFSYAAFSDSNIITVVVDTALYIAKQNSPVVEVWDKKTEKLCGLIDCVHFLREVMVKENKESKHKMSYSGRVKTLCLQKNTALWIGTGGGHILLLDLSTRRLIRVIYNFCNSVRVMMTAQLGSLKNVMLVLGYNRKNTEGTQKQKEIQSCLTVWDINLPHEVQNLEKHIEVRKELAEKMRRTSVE
# Test: Recombinant LRRK2 enzyme peptide substrate TR-FRET assay
# Format: biochemical
# Settings: 60 nM LRRK2 enzyme; 1 uM Biotin-longer LRRKtide; 10 uM ATP
# Procedure: A LRRK2 cDNA encoding residues 1326-2527 was received from Dundee University (described in M. Jaleel et al., 2007, Biochem J, 405: 407-417). This gene fragment was subcloned into pFB-HTb (Invitrogen) using BamHI and NotI restriction sites. The LRRK2 plasmid was recombined into the baculovirus genome according to the BAC-to-BAC protocol described by Invitrogen. Transfection into Spodoptera frugiperda (Sf9) insect cells was performed using Cellfectin (Invitrogen), according to the manufacturer's protocol to generate P1 and P2 baculovirus stocks.
# Sf9 cells were grown in HyClone SFX (Thermo Scientific) growth media at 27° C., 80 rpm in shake flask until of a sufficient volume to inoculate a bioreactor. The cells were grown in a 20 liter working volume Wave bioreactor (GE Healthcare) at 27° C., 50% dissolved oxygen and an agitation rate 22 rocks per minute, 10 degree rock angle, 200 ml/min air with a cell concentration of approximately 6×e6 cells/ml. The cells were infected with P2 Baculovirus at a multiplicity of infection (MOI) of 3. The cultivation was continued for a 48 hour expression phase. The infected cells were removed from the growth media by centrifugation at 2500 g using a Sorvall RC 3C Plus centrifuge at 2500 g for 20 minutes. The cell pellet was immediately frozen and subsequently supplied for purification.
# A 260 g pellet was allowed to thaw in a water bath at 27° C. with 800 ml lysis buffer/buffer A (50 mm Tris-HCl pH 8.5, 300 mM NaCl, 1 mm DTT, 10% glycerol, 1 ml/L calbiochem complete protease inhibitor cocktail and benzonase (50 ul/800 ml)) before being dounce homogenised on ice using 20 strokes per 100 ml. The suspension was packed in ice and sonicated at 50% amplitude for 3 min 10 sec on/off using a ¾″ probe. The suspension was then centrifuged at 100,000 g for 90 min, at 4° C.
# The lysate (700 ml) was decanted from the insoluble pellet and contacted for 3 h at 4 C with 10 ml His bind Ni NTA resin by end over end mixing. The resin was recovered by centrifugation, 3000 g, 5 min at 4 C, and packed in an XK16 column. The column was then washed with 10 column volumes buffer A, 10 column volumes buffer B (buffer A+1M NaCl) and 10 column volumes buffer C (buffer A+20 mM imidazole). The column was then eluted with 15 column volumes buffer D (buffer A+300 mM imidazole) collecting 2 ml fractions. All washes and elution were conducted at 4 ml/min.
# Fractions identified by SDS-PAGE as containing protein of interest were pooled and loaded directly onto a 320 ml SEC Superdex 200 pg column that was pre-equilibrated with buffer E (50 mM Tris-HCl pH 8.5, 300 mM NaCl, 10% glycerol, 1 mM DTT). The column was loaded and eluted with 1.2 column volumes buffer E at 2 ml/min collecting 2 ml fractions. Fractions identified by SDS-PAGE as containing protein of interest were tested for activity.
# Production of Biotin-Loner LRRKtide
# The peptide (biotin-[…]-OH) was assembled at a […] scale using FMOC solid phase peptide synthesis on an ACT 357 MPS automated peptide synthesizer. The resulting crude peptide was cleaved from the resin using a 95:2.5:2.5 mix of trifluoroacetic acid: triisopropylsilane: water. The crude cleaved peptide was purified by reverse phase HPLC, eluting with a 5-35% gradient of 0.1% trifluoroacetic acid/acetonitrile in 0.1% trifluoroacetic acid/water.
# Recombinant LRRK2 Enzyme Peptide Substrate TR-FRET Assay
# This assay for LRRK2 inhibition is based on the detection of phosphorylation of the peptide ‘longer LRRKtide’ (biotin-[…]-OH) using a time resolved-fluorescence resonance energy transfer (TR-FRET) assay. It uses an antibody labelled europium chelate donor, W-1024 (Eu) and Streptavidin-Surelight APC acceptor (APC). When in close proximity, the excitation of Eu at 330 nm leads to energy transfer to APC with emission of light at 665 nm,
# Assay Protocol • 1. A 10 mM test compound was dissolved in 100% DMSO and serially diluted 1 in 4. […]
row,recombinant LRRK2 enzyme peptide substrate TR-FRET assay (pIC50),Compound
1,8.1,"cis-3-(4-((4-ethoxy-7H-pyrrolo[2,3-d]pyrimidin-2-yl)amino)-5-methyl-1H-pyrazol-1-yl)cyclopentanol [Example E56]"
2,8.3,"trans-2-(4-((4-ethoxy-7H-pyrrolo-[2,3-d]pyrimidin-2-yl)amino)-5-methyl-1H-pyrazol-1-yl)-cyclopentanol [Example E40]"
3,9,"trans-2-(5-chloro-4-((4-ethoxy-7H-pyrrolo-[2,3-d]-pyrimidin-2-yl)amino)-1H-pyrazol-1-yl)-cyclopentanol [Example E37]"
4,9.1,"trans-2-(5-chloro-4-((4-ethoxy-7H-pyrrolo-[2,3-d]-pyrimidin-2-yl)amino)-1H-pyrazol-1-yl)cyclopentanol [Example E38]"
5,8,"trans-2-(4-((4-ethoxy-7H-pyrrolo-[2,3-d]pyrimidin-2-yl)amino)-5-methyl-1H-pyrazol-1-yl)-cyclopentanol [Example E41]"

# Same assay, conditions: 60 nM LRRK2 enzyme; 1 uM Biotin-longer LRRKtide; 10 uM ATP; read-out: recombinant LRRK2 enzyme peptide substrate TR-FRET assay (pIC50) (converted)
row,IC50 [µM],Compound
1,0.01,"CCOc1nc(Nc2cnn(CCN3CCOCC3)c2C)nc2[nH]ccc12 [Example E45, 4-ethoxy-N-(5-methyl-1-(2-morpholinoethyl)-1H-pyrazol-4-yl)-7H-pyrrolo-[2,3-d]pyrimidin-2-amine]"
2,0.0126,"CCOc1nc(Nc2cnn(C3CCN(C)C3)c2C)nc2[nH]ccc12 (single isomer, unassigned) [Example E14, 4-ethoxy-N-(5-methyl-1-(1-methylpyrrolidin-3-yl)-1H-pyrazol-4-yl)-7H-pyrrolo-[2,3-d]-pyrimidin-2-amine]"
3,0.00794,"CCOc1nc(Nc2cnn(C3CC(O)C3)c2C)nc2[nH]ccc12 (stereo not shown) [Example E52, 3-(4-((4-ethoxy-7H-pyrrolo-[2,3-d]-pyrimidin-2-yl)-amino)-5-methyl-1H-pyrazol-1-yl)cyclo-butanol]"
4,0.0126,"CCOc1nc(Nc2cnn(CC(C)(C)O)c2C)nc2[nH]ccc12 [Example E3, 1-(4-((4-ethoxy-7H-pyrrolo-[2,3-d]pyrimidin-2-yl)amino)-5-methyl-1H-pyrazol-1-yl)-2-methylpropan-2-ol]"
5,0.00794,"CCOc1nc(Nc2cnn(C3CCOCC3)c2C2CC2)nc2[nH]ccc12 [Example E44, N-(5-cyclopropyl-1-(tetrahydro-2H-pyran-4-yl)-1H-pyrazol-4-yl)-4-ethoxy-7H-pyrrolo-[2,3-d]pyrimidin-2-amine]"

# Same assay, conditions: 60 nM LRRK2 enzyme; 10 uM ATP; read-out: pIC50 in the recombinant LRRK2 enzyme peptide substrate TR-FRET assay (converted)
row,IC50 [µM],Compound
1,≤ 0.1,"CCOc1nc(Nc2cnn(CCOC)c2Cl)nc2[nH]ccc12 [Example E21, N-(5-chloro-1-(2-methoxyethyl)-1H-pyrazol-4-yl)-4-ethoxy-7H-pyrrolo-[2,3-d]-pyrimidin-2-amine]"
2,≤ 0.1,"CCOc1nc(Nc2cnn(C3CCN(C4COC4)C3)c2C)nc2[nH]ccc12 (single isomer, unassigned) [Example E67, 4-ethoxy-N-(5-methyl-1-(1-(oxetan-3-yl)-pyrrolidin-3-yl)-1H-pyrazol-4-yl)-7H-pyrrolo-[2,3-d]pyrimidin-2-amine]"
3,≤ 0.1,"CCOc1nc(Nc2cnn(C3CCCC3(C)O)c2C)nc2[nH]ccc12 (racemic) [Example E70, Trans-2-(4-((4-ethoxy-7H-pyrrolo-[2,3-d]pyrimidin-2-yl)amino)-5-methyl-1H-pyrazol-1-yl)-1-methylcyclopentanol]"
